In patent US5602146A, “4-iminoquinolines, processes for their preparation, and their use” (Hoechst Aktiengesellschaft, priority 1992, dated 1997):
≈ marks a conversion by molar mass, not a printed value.

Key:
HIV = assay: Testing of preparations against HIV in a cell culture (T-Cell culture assay); type: cell-based; details: Human immunodeficiency virus 1, 72 h; HIV-infected lymphocytes, 37° C. for 3 days; lowest concentration at which no giant cells occurred; read-out: T-Cell culture assay Minimum inhibitory concentration
Procedure: Testing of preparations against HIV in a cell culture
Description of the method
The complete medium additionally contains 20% of fetal calf serum and 40 IU/ml of recombinant interleukin 2. Cells:
Lymphocytes isolated from fresh donor blood by means of Ficol® gradient centrifugation are cultured, with addition of […] of phytohemagglutinin (Wellcome) in the complete medium at 37° C. under 5% of CO2 for 36 hours. After addition of 10% of dimethyl sulfoxide, the cells are frozen at a cell density of 5×10^6 and stored in liquid nitrogen. For the experiment, the cells are thawed, washed in RPMI medium and cultured in the complete medium for 3-4 days.
The test preparations were dissolved in dimethyl sulfoxide in a concentration of 16.7 mg/ml and diluted to 1 mg/ml in complete medium.
0.4 ml of medium was initially introduced into 24-well multiwell dishes. After addition of 0.1 ml of the dissolved preparation into the upper row of the dish, a geometric dilution series was produced by transferring in each case 0.1 ml. Preparation-free controls always contained 0.4 ml of complete medium with 0.5% of dimethyl sulfoxide.
Lymphocyte cultures having a cell count of 5×10^5 cells/ml were infected by addition of 1/50 of the volume of supernatant from HIV-infected lymphocyte cultures. The titer of these culture supernatants was determined by end point dilution with 1-5×10^6 infectious units/ml. After incubation at 37° C. for 30 minutes, the infected lymphocytes were centrifuged off and taken up again in the same volume of medium. In each case 0.6 ml of this cell suspension was introduced into each of the depression walls of the test plate. The batches were incubated at 37° C. for 3 days.
The infected cell cultures were examined under the microscope for the presence of giant cells, which indicate active multiplication of the virus in the culture. The lowest concentration of preparation at which no giant cells occurred was determined as the inhibitory concentration against HIV. As a control, the supernatants from the culture plates were investigated for the presence of the HIV antigen with the aid of an HIV antigen test in accordance with the manufacturer's information (Organon).

[1] = biological target: T1, HIV "Reverse Transcriptase" (Human immunodeficiency virus type 1 group M subtype B, UniProt P04585); assay: Inhibition of HIV "Reverse Transcriptase" (Scintillation Proximity Assay); type: biochemical; details: RT-SPA, RT from HIV cloned in E. coli, 60 minutes (37° C.)
T1 construct: purchased HT-Biotechnology Ltd., Cambridge, UK; host or cells: E. coli
Procedure: Investigation of the substances for inhibition of HIV "Reverse Transcriptase"
The activity of reverse transcriptase (RT) was determined with the aid of a "Scintillation Proximity Assay" (SPA). The reagent kit for the RT-SPA was obtained from Amersham/Buchler (Braunschweig). The enzyme RT (from HIV cloned in E. coli) originated from HT-Biotechnology Ltd., Cambridge, UK.
The test was carried out in accordance with the method manual of the manufacturer Amersham--with the following modifications:
bovine serum albumin was added to the "assay" buffer to the final concentration of 0.5 mg/ml.
the test was carried out in Eppendorf reaction vessels with a batch volume of […].
the RT concentrate of the manufacturer (5000 U/ml) was diluted to an activity of 15 U/ml in tris-HCl buffer 20 mM; pH 7.2; 30% of glycerol.
the incubation time for the batches was 60 minutes (37° C.).
after the reaction had been stopped and after "development" with the bead suspension, […] of the batch were transferred to 4.5 ml of tris-HCl buffer, 10 mM; pH 7.4; 0.15M NaCl, and the tritium activity was measured in a β-counter.
Testing of the substances:
For a preliminary test of the inhibitor activity, the substances were dissolved in dimethyl sulfoxide (stock solution c=1 mg/ml) and tested in a dilution in dimethyl sulfoxide of 10^-1, 10^-2, 10^-3 and the like to determine IC50 values, the inhibitor stock solutions were further diluted in tris-HCl buffer, 50 mM, pH 8 and tested in suitable concentrations. The concentration associated with 50% enzyme inhibition was determined from the graph of RT activity against Log Cinh.

## CCON=C1c2cc(Cc3ccncc3)ccc2NC(=S)C1(C)C [Example 104]
HIV
  MIC: 0.04 µg/mL (≈ 0.118 µM)
[1]
  IC50: ~29.5 nM

## CSc1ccc2c(c1)C(=NOC(C)C)C(C)(C)C(=S)N2 [Example 82]
HIV
  MIC: < 0.08 µg/mL
[1]
  IC50: 32.4 to 324 nM

## CSCCON=C1c2cc(Cl)ccc2NC(=O)C1(C)C [Example 49]
[1]
  IC50: 320 to 3200 nM

## CCON=C1c2cc(Cl)ccc2NC(=O)C1(C)C [Example 4, syn-6-Chloro-3,3-dimethyl-4-(ethyloxyimino)-l,3-dihydroquinolin-2-one]
[1]
  IC50: 37.5 to 375 nM

## CON=C1c2cc(Cl)ccc2NC(=O)C1(C)C [Example 34]
[1]
  IC50: 39.6 to 396 nM

## CC(C)ON=C1c2cc(OC(F)(F)F)ccc2NC(=S)C1(C)C [Example 87]
HIV
  MIC: 0.04 µg/mL (≈ 0.115 µM)
[1]
  IC50: 28.9 to 289 nM

## CSc1ccc2c(c1)C(=NOC(C)C)C(C)(C)C(=O)N2 [Example 78]
[1]
  IC50: 34.2 to 342 nM

## CC1(C)C(=S)Nc2ccc(Cl)cc2C1=NOCc1ccccc1[N+](=O)[O-] [Example 21]
[1]
  IC50: 256 to 2560 nM

## C=CCON=C1c2cc(Cl)ccc2NC(=S)C1(C)C [Example 48]
HIV
  MIC: 0.04 µg/mL (≈ 0.136 µM)
[1]
  IC50: 3.39 to 33.9 nM

## CCON=C1c2cc(OCC)ccc2NC(=NO)C1(C)C [Example 124]
HIV
  MIC: 0.4 µg/mL (≈ 1.37 µM)
[1]
  IC50: ~343 nM

## CCON=C1c2cc(Cl)ccc2N=C(Nc2ccccc2)C1(C)C [Example 131]
HIV
  MIC: 1 µg/mL (≈ 2.93 µM)
[1]
  IC50: 29.3 to 293 nM

## CC1(C)C(=O)Nc2ccc(Cl)cc2C1=NOCc1ccccc1Cl [Example 29]
[1]
  IC50: 2750 to 27500 nM

## CCON=C1c2cc(Cc3ccncc3)ccc2NC(=O)C1(C)C [Example 103]
HIV
  MIC: 0.04 µg/mL (≈ 0.124 µM)
[1]
  IC50: 30.9 to 309 nM

## CCC1C(=O)Nc2ccc(Cl)cc2C1=NO (stereo not drawn) [Example 38]
[1]
  IC50: 4190 to 41900 nM

## CCC1(CC)C(=O)Nc2ccc(Cl)cc2C1=NOC(C)C [Example 119]
HIV
  MIC: 0.008 µg/mL (≈ 0.0259 µM)
[1]
  IC50: 3.24 to 32.4 nM

## CC1(C)C(=O)Nc2ccc(Cl)cc2C1=NOCc1cccc(Cl)c1 [Example 23]
[1]
  IC50: 275 to 2750 nM

## CC(C)ON=C1c2cc(Cl)ccc2NC(=O)C1(C)C [Example 6, anti-6-Chloro-3,3-dimethyl-4-(isopropyloxyimino)-l,3dihydroquinolin-2-one]
HIV
  MIC: 0.008 µg/mL (≈ 0.0285 µM)
[1]
  IC50: 3.56 to 35.6 nM

## CCON=C1c2cc(Cl)ccc2NC(=NO)C1(C)C [Example 70, anti-6-Chloro-3,3,-dimethyl-4-(ethyloxyimino)-2-hydroxyimino-1,3-dihydroquinoline]
[1]
  IC50: 3.55 to 35.5 nM

## COc1ccc2c(c1)C(=NOC(C)C)C(C)(C)C(=S)N2 [Example 45]
[1]
  IC50: 3.42 to 34.2 nM

## CC1(C)C(=S)Nc2ccc(Cl)cc2C1=NOCc1cccc(Cl)c1 [Example 24]
[1]
  IC50: 26.4 to 264 nM

## CCON=C1c2cc(Cl)ccc2NC(=S)C12CCC2 [Example 115]
HIV
  MIC: 0.04 µg/mL (≈ 0.136 µM)
[1]
  IC50: 3.39 to 33.9 nM

## CC1(C)C(=O)N(Cc2ccccc2)c2ccc(Cl)cc2C1=NOCc1ccccc1 [Example 10B, anti-(1-Benzyl)-4-(benzyloxyimino)-6-chloro-3,3-dimethyl-1,3-dihydroquinolin-2-one]
[1]
  IC50: > 23900 nM

## COCCON=C1c2cc(Cl)ccc2NC(=O)C1(C)C [Example 32]
HIV
  MIC: 1 µg/mL (≈ 3.37 µM)
[1]
  IC50: 337 to 3370 nM

## CCC1C(=O)Nc2ccc(Cl)cc2C1=NOC(C)C (stereo not drawn) [Example 40]
[1]
  IC50: 35.6 to 356 nM

## CCON=C1c2cc(Cl)ccc2NC(=S)C12CCCC2 [Example 122]
HIV
  MIC: 0.008 µg/mL (≈ 0.0259 µM)

## CC1(C)C(=S)Nc2ccc(Cl)cc2C1=NOCc1ccc(Cl)cc1 [Example 27]
[1]
  IC50: 2640 to 26400 nM

## CCON=C1c2cc(Cl)ccc2NC(=S)C1(C)C [Example 3, anti-6-Chloro-3,3-dimethyl-4-(ethyloxyimino)-l,3-dihydroquinoline-2-thione]
HIV
  MIC: 0.008 µg/mL (≈ 0.0283 µM)
[1]
  IC50: 14.1 nM

## CC1(C)C(=O)Nc2ccc(Cl)cc2C1=NOCc1ccccc1[N+](=O)[O-] [Example 20]
[1]
  IC50: 2680 to 26800 nM

## CCON=C1c2cc(OC)ccc2NC(=S)C1(C)C [Example 43]
[1]
  IC50: 3.59 to 35.9 nM

## CC(C)=NN=C1c2cc(Cl)ccc2NC(=S)C1(C)C [Example 62]
HIV
  MIC: 0.04 µg/mL (≈ 0.136 µM)
[1]
  IC50: 3.4 to 34 nM

## COCCON=C1c2cc(Cl)ccc2NC(=S)C1(C)C [Example 33]
HIV
  MIC: 0.2 µg/mL (≈ 0.639 µM)
[1]
  IC50: ~32 nM

## CCON=C1c2cc(Cl)ccc2NC(=O)C1(C)C [Example 2, anti-6-Chloro-3,3-dimethyl-4-(ethyloxyimino)-1,3-dihydroquinolin-2-one]
HIV
  MIC: 0.2 µg/mL (≈ 0.75 µM)
[1]
  IC50: 82.5 nM

## CCCON=C1c2cc(Cl)ccc2NC(=S)C1(C)C [Example 9, anti-6-Chloro-3,3-dimethyl-4-(n-propyloxyimino)-1,3dihydroquinoline-2-thion]
HIV
  MIC: 0.04 µg/mL (≈ 0.135 µM)
[1]
  IC50: 3.37 to 33.7 nM

## anti-6-Chloro-3,3-dimethyl-4-(isopropylazino)-1,3-dihydroquinolin-2-one [Example 12]
[1]
  Reverse transcriptase assay IC50: 0.01 to 0.1 µg/mL

## CCCON=C1c2cc(Cl)ccc2NC(=O)C1(C)C [Example 8, anti-6-Chloro-3,3-dimethyl-4-(n-propyloxyimino)-l,3-dihydroquinolin-2-one]
HIV
  MIC: 0.2 µg/mL (≈ 0.712 µM)
[1]
  IC50: 35.6 to 356 nM

## CC1(C)C(=S)Nc2ccc(Cl)cc2C1=NOCc1ccccc1 [Example 16]
[1]
  IC50: 290 to 2900 nM

## CCON=C1c2cc(Cl)ccc2NC(=O)C12CCC2 [Example 114]
[1]
  IC50: 21.5 nM

## CCC1C(=N)c2cc(Cl)ccc2NC1=S (stereo not drawn) [Example 42]
[1]
  IC50: 4190 to 41900 nM

## CCC(C)ON=C1c2cc(Cl)ccc2NC(=O)C1(C)C (stereo not drawn) [Example 52]
[1]
  IC50: 33.9 to 339 nM

## C#CCON=C1c2cc(Cl)ccc2NC(=O)C1(C)C [Example 51]
[1]
  IC50: 36.1 to 361 nM

## COc1ccc2c(c1)C(=NOC(C)C)C(C)(C)C(=O)N2 [Example 44]
[1]
  IC50: ~36.2 nM

## CC(C)ON=C1c2cc(Cl)ccc2NC(=O)C12CCCC2 [Example 123]
[1]
  IC50: 3.26 to 32.6 nM

## CC1(C)C(=S)Nc2ccc(Cl)cc2C1=NOCc1ccccc1Cl [Example 30]
[1]
  IC50: 264 to 2640 nM

## C=CCON=C1c2cc(Cl)ccc2NC(=O)C1(C)C [Example 47]
[1]
  IC50: 35.9 to 359 nM

## CCON=C1c2cc(Cl)ccc2NC(=O)C1CC (stereo not drawn) [Example 39]
HIV
  MIC: 1 µg/mL (≈ 3.75 µM)
[1]
  IC50: 37.5 to 375 nM

## CC(C)ON=C1c2cc(Cl)ccc2NC(=S)C12CCCC2 [Example 117]
[1]
  IC50: 3.1 to 31 nM

## CON=C1c2cc(Cl)ccc2NC(=S)C1(C)C [Example 35]
[1]
  IC50: 3.72 to 37.2 nM

## CC1(C)C(=O)Nc2ccc(Cl)cc2C1=NOCc1ccccc1 [Example 10A, anti-4-(Benzyloxyimino)-6-chloro-3,3-dimethyl-1,3-dihydroquinolin-2-one]
[1]
  IC50: > 30400 nM

## CCON=C1c2cc(Cl)ccc2NC(=S)C1(C)C [Example 5, syn-6-Chloro-3,3-dimethyl-4-(ethyloxyimino)-1,3-dihydroquinoline-2-thione]
[1]
  Reverse transcriptase assay IC50: 0.001 to 0.01 µg/mL

## CC(C)ON=C1c2cc(Cl)ccc2NC(=S)C12CCC2 [Example 120]
[1]
  IC50: 3.24 to 32.4 nM

## CCON=C1c2cc(Cl)ccc2N=C(Nc2ccc(Cl)cc2)C1(C)C [Example 132]
[1]
  IC50: ~266 nM
